Test results reported in US8536180B2, “Pyrimidine inhibitors of kinase activity” (AbbVie Inc., priority 2009, dated 2013).

Target: T1, C-terminal GST-tagged, recombinant, human IGF-1R, amino acids 954-1367 (Homo sapiens, UniProt P08069)
T1 construct: human IGF-1R, amino acids 954-1367 expressed by baculovirus in Sf21 cells; GST (C); purchased Cell Signaling Technology; host or cells: baculovirus in Sf21 cells
Test: IGF-1R homogenous time-resolved fluorescence (HTRF) in vitro kinase assay
Format: biochemical
Conditions: IGF-1R kinase, ATP 50 μM final, biotinylated peptide substrate 0.5 μM, 60 minutes at room temperature
Method: IGF-1R kinase activity was assayed by a homogenous time-resolved fluorescence (HTRF) in vitro kinase assay (Mathis, G., HTRF(R) Technology. J Biomol Screen, 1999. 4(6): p. 309-314). Specifically, 10 μL C-terminal GST-tagged, recombinant, human IGF-1R, amino acids 954-1367 expressed by baculovirus in Sf21 cells (Cell Signaling Technology) was mixed with 10 μL inhibitor (various concentrations, 2% final DMSO) and 10 μL of ATP (50 μM final concentration) in reaction buffer (50 mM HEPES, pH 7.5, 10 mM MgCl2, 2 mM MnCl2, 0.1% BSA and 1 mM DTT, 40 μL final volume). The reaction was initiated by addition of 10 μL of biotinylated peptide substrate (Biotin-Ahx-[…], 0.5 μM final concentration) in a black 384-well plate (Packard). After 60 minutes incubation at room temperature, the reaction was quenched by addition of 60 μL stop/revelation buffer to give 30 mM EDTA, 1 μg/mL streptavidin-APC (Prozyme), 50 ng/mL anti-phosphotyrosine mAb PT66-K Europium Cryptate, 30 mM HEPES, pH 7.5, 120 mM KF, 0.005% Tween-20, 0.05% BSA). The quenched reaction was allowed to stand at room temperature for 1 hour and then read in a time-resolved fluorescence detector (Envision, Perkin Elmer) at 615 nm and 665 nm simultaneously. The ratio between the signal of 615 nm and 665 nm was used in the calculation of the IC50.

T1 sequence (P08069 954-1367): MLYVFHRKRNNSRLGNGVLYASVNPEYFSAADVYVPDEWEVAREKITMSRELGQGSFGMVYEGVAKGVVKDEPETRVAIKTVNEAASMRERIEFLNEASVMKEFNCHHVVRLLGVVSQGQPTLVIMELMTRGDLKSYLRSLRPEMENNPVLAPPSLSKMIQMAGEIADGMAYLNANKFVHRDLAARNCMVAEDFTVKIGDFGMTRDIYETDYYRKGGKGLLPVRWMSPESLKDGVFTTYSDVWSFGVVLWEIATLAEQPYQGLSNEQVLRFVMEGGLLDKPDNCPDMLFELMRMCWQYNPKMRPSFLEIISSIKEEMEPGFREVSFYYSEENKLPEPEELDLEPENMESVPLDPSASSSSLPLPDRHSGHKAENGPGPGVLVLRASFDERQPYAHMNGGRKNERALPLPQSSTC

Row | IC50 | SMILES
1 | < 0.01 µM | COc1ccccc1Cc1nc2cc(-c3nc4ccccn4c3-c3ccnc(Nc4cccc(CCN(C)C)c4)n3)ccc2[nH]1 [Example 3, N-{3-[2-(dimethylamino)ethyl]phenyl}-4-{2-[2-(2-methoxybenzyl)-1H-benzimidazol-5-yl]imidazo[1,2-a]pyridin-3-yl}pyrimidin-2-amine]
2 | < 0.01 µM | CN(C)CCc1cccc(Nc2nccc(-c3c(-c4ccc5nc(Cc6ccccc6)[nH]c5c4)nc4ccccn34)n2)c1 [Example 2, 4-[2-(2-benzyl-1H-benzimidazol-6-yl)imidazo[1,2-a]pyridin-3-yl]-N-{3-[2-(dimethylamino)ethyl]phenyl}pyrimidin-2-amine]
3 | 0.01 to 0.05 µM | COc1cc(NCC(=O)O)ccc1Nc1nccc(-c2c(-c3ccc4[nH]c(Cc5ccccc5)nc4c3)nc3ccccn23)n1 [Example 49, N-[4-({4-[2-(2-benzyl-1H-benzimidazol-5-yl)imidazo[1,2-a]pyridin-3-yl]pyrimidin-2-yl}amino)-3-methoxyphenyl]glycine]
4 | 0.101 to 0.5 µM | CCn1cc(-c2ccnc(Nc3ccccc3OC)n2)c(-c2ccc3[nH]c(Cc4ccccc4OC)nc3c2)n1 [Example 65, 4-{1-ethyl-3-[2-(2-methoxybenzyl)-1H-benzimidazol-5-yl]-1H-pyrazol-4-yl}-N-(2-methoxyphenyl)pyrimidin-2-amine]
5 | 0.01 to 0.05 µM | COc1ccc(CN(C)CCO)cc1Nc1nccc(-c2c(-c3ccc4nc(Cc5ccccc5)[nH]c4c3)nc3ccccn23)n1 [Example 50, 2-[[3-({4-[2-(2-benzyl-1H-benzimidazol-6-yl)imidazo[1,2-a]pyridin-3-yl]pyrimidin-2-yl}amino)-4-methoxybenzyl](methyl)amino]ethanol]
6 | 0.01 to 0.05 µM | COc1cc(N(C)C)ccc1Nc1nccc(-c2c(-c3ccc4nc(Cc5ccccc5Cl)[nH]c4c3)nc3sccn23)n1 [Example 33, N^1-(4-{6-[2-(2-chlorobenzyl)-1H-benzimidazol-6-yl]imidazo[2,1-b][1,3]thiazol-5-yl}pyrimidin-2-yl)-2-methoxy-N^4,N^4-dimethylbenzene-1,4-diamine]
7 | > 0.5 µM | FC(F)(F)c1ccccc1Cc1nc2ccc(-c3nc4sccn4c3-c3ccnc(Nc4ccccc4CN4CCCC4)n3)cc2[nH]1 [Example 42, N-[2-(pyrrolidin-1-ylmethyl)phenyl]-4-(6-{2-[2-(trifluoromethyl)benzyl]-1H-benzimidazol-6-yl}imidazo[2,1-b][1,3]thiazol-5-yl)pyrimidin-2-amine]

Continued, compound first:

Row | SMILES | IC50
8 | CN(C)CCc1cccc(Nc2nccc(-c3c(-c4ccc5nc(Nc6ccccc6)[nH]c5c4)nc4ccccn34)n2)c1 [Example 12, 6-{3-[2-({3-[2-(dimethylamino)ethyl]phenyl}amino)pyrimidin-4-yl]imidazo[1,2-a]pyridin-2-yl}-N-phenyl-1H-benzimidazol-2-amine] | < 0.01 µM
9 | Cc1cc(Nc2nccc(-c3c(-c4ccc5nc(Cc6ccccc6)[nH]c5c4)nc4ccccn34)n2)n[nH]1 [Example 25, 4-[2-(2-benzyl-1H-benzimidazol-6-yl)imidazo[1,2-a]pyridin-3-yl]-N-(5-methyl-1H-pyrazol-3-yl)pyrimidin-2-amine] | 0.051 to 0.1 µM
10 | Fc1ccc(Nc2nccc(-c3c(-c4ccc5nc(-c6ccccc6)[nH]c5c4)nc4ccccn34)n2)cc1 [Example 38, N-(4-fluorophenyl)-4-[2-(2-phenyl-1H-benzimidazol-6-yl)imidazo[1,2-a]pyridin-3-yl]pyrimidin-2-amine] | 0.101 to 0.5 µM
11 | CCn1cc(-c2ccnc(Nc3ccccc3OC)n2)c(-c2ccc3[nH]c(Cc4ccccc4)nc3c2)n1 [Example 64, 4-[3-(2-benzyl-1H-benzimidazol-5-yl)-1-ethyl-1H-pyrazol-4-yl]-N-(2-methoxyphenyl)pyrimidin-2-amine] | 0.101 to 0.5 µM
12 | CS(=O)(=O)c1cccc(Nc2nccc(-c3c(-c4ccc5nc(Cc6ccccc6)[nH]c5c4)nc4ccccn34)n2)c1 [Example 16, 4-[2-(2-benzyl-1H-benzimidazol-6-yl)imidazo[1,2-a]pyridin-3-yl]-N-[3-(methylsulfonyl)phenyl]pyrimidin-2-amine] | 0.051 to 0.1 µM
